Laboratory results as given in patent US20240270760A1, “GLYCERIC ACID, GLYCERATE, AND COMPOSITION THEREOF” (INNER MONGOLIA KINGDOMWAY PHARMACEUTICAL CO., LTD., priority 2023, published 2024).

Columns and labels:
[1] = Dissolution of calcium glycerate forms in water at 37±0.2° C. (FIG. 9); format: physicochemical; settings: comparison between forms
[2] = tested on: Alcohol metabolism; assay: Alcohol metabolism test: ethanol content in venous blood after composition and ethanol feeding; format: in vivo, mice; settings: for Percentage decrease compared to comparative group: decrease of venous blood ethanol content versus physiological saline group (75.0 mg/100 mL); for Ethanol content: venous blood 1 hour after 2 mL of 5% edible ethanol, 2 mL composition solution (4.5 g in 15 mL physiological saline) fed 1 hour before ethanol, 7 animals per group, GC-FID
Method: The test was divided into test groups and comparative groups. Each group included 7 healthy animals (e.g., mice). The healthy animals were fed in the laboratory for 10 days to adapt to the test environment, and then fasting was maintained 12 hours before the start of the test.
4.5 g of the compositions obtained in preparation examples 10-31 and comparative examples 1-8 were respectively dissolved in 15 mL of physiological saline to prepare composition solutions. The animals in the test groups were fed with 2 mL of the composition solution respectively, and the animals in the comparative group were fed with the same dose of normal saline. 1 hour later, the animals in the test groups and the comparative groups were fed with 2 mL of 5% edible ethanol, respectively. 1 hour later, the venous blood of the animals was collected. The ethanol content in the venous blood was detected by a gas chromatography-hydrogen flame ionization detector.

| Structure (SMILES) | dissolution rate [1] | Percentage decrease compared to comparative group [2] [%] | Ethanol content [2] [mg/100 mL] |
| --- | --- | --- | --- |
| O=C([O][Ca][O]C(=O)[C@H](O)CO)[C@H](O)CO [crystalline Form II, calcium D-glycerate] | faster than that of crystalline Form I | – | – |
| O=C(O)[C@H](O)CO [compound 1, D-glyceric acid] | – | 14.8 | 63.9 |
| O=C(O)[C@H](O)CO [compound 5, D-glyceric acid] | – | 15.2 | 63.6 |
